Source: patent US20200360471A1, “METHODS OF TREATING AND PREVENTING VIRAL INFECTIONS” (priority 2017, published 2020)
Like-named read-outs stand apart in the source and are kept apart here. Peptide text beside a SMILES is read from it.

Columns and labels:
HPVS PsV = conditions: read-out: IC50, inhibition of uptake of HPVS PsV; PsV 1:6000 dilution, 293TT cells
Experimental: Pseudovirus (PsV) of HPVS was prepared using method described by Buck et al, (Journal of Virology, January 2004; 751-757) and used as a model HPV in this study. The PsV stocks were prepared by co-transfecting human 293TT cells with HPVS viral plasmid p5Shell containing codon-modified papillomavirus capsid genes for L1 and L2 proteins, and pcLucF reporter plasmid containing the luciferase gene for detecting viral infection. The cell lysates containing the capsidized virus was used as the PsV stock. Optimal PsV dilution factor was determined based on the luciferase activity in 293TT cells infected with serially diluted HPVS PsV.
Data were collected on a Molecular Devices Flexstation 3 Microplate Reader using Softmax Pro v5.4.4. Data analysis was performed on Prism software using four parameter logistic model. […] Furin Inhibitor I was used as a positive control for HPVS PsV inhibition since it blocks the viral entry into host cells.
Two runs were performed for each dilution level.

TLR7 = assay: imiquimod-induced cytokine responses in PBMC cultures with peptide pre-treatment; assay type: cell-based, human
Experimental: Primary cell cultures were prepared in RPMI including 5% autologous plasma. Isolated PBMC cells were cultured in 96-well plates at a density of 0.5×10^6cells/well at 37° C., under humidified 5% CO2.
IL-1β, TNFα, IL-6 and IL-8 were measured simultaneously with a fixed electrochemoluminescence platform based on the sandwich ELISA principle of capture and detection antibodies, produced by MESO SCALE DISCOVERY (MSD, MESO SCALE QUICKPLEX SQ120). The applied assay was the V-PLEX PLUS pro-inflammatory cytokine panel II, including IL-1β, TNFα, IL-6 and IL-8. This assay includes manufacturer-provided control samples with indicated nominal values for comparison. These lyophilized controls, i.e. freeze-dried controls for IL-1β, TNFα, IL-6, IL-8, were prepared freshly at the time of use. QC samples were prepared from the calibrator at 3 different concentrations along the standard curve as multiple aliquots from a single batch and maintained at −20° C. Low, medium and high concentration controls were included in every multiplex assay run to control intra- and inter-assay variation. V-PLEX panels are specific for the detection of human chemokines and cytokines, and combinations have been validated by the manufacturer, to ensure no cross-reactivity.
(§1) IFNα was quantified by a sandwich ELISA based on specific capture and detection antibodies for various matrices (MABTECH), according to the manufacturer's instructions. QC samples were prepared from the calibrator at 3 different concentrations along the standard curve as multiple aliquots from a single batch and maintained at −20° C.
as §1, with “IFNβ” for “IFNα”, “(PBL ASSAY SCIENCE),” for “(MABTECH),”, “C. freezer.” for “C.”
Briefly, PBMC primary cultures were prepared from 4 healthy donors (2 males, 2 females) as described above. […] The cultures were prepared in duplicate and the readouts for pan-IFNα and IFNβ (ELISA) were measured once. Five-point concentration-response curves were constructed for the various treatment conditions in the PBMC cultures, freshly isolated from 4 subjects.

[1] = test system: external anogenital warts; assay type: in vivo, human
Experimental: A randomized, double-blind, placebo-controlled study to assess the pharmacodynamics, safety/tolerability and efficacy of omiganan in patients with external anogenital warts was conducted. 24 patients aged 18 years or older with clinically diagnosed external anogenital warts were enrolled. […] The gel was applied topically once daily for 12 weeks. The treatment period was from day 0 till day 84. During the treatment period subjects visited the clinical unit on days 0, 14, 28, 56 and 84. A fixed dose of omiganan or placebo was applied once daily. Two follow up visits were scheduled on days 126 and 168. During study execution, vital signs were measured on days 0, 14, 28, 56 and 84. Pharmacodynamic assessments were performed on day 0 (pre-dose), 14, 28, 56 and 84, respectively. Punch biopsies were performed at the screening and on days 56 and 168. Subjects were dosed 84 consecutive days with approximately 24 hours between each treatment. Omiganan or placebo (vehicle) was administered to the subjects. […] Subjects were instructed to apply a fingertip unit of gel (approximately […]). Omiganan is prepared as a lyophilized powder of the pentahydrochloride salt. The molecular formula is C90H127N27O12. HCl*H2O. […] Any other therapy for external anogenital warts (topical treatment, laser therapy, cryotherapy, photodynamic therapy and surgical excision) was not allowed from 28 days prior to the first study drug administration, during the study and until the 3 month follow up assessment was completed. Wart count and wart clearance. The warts were counted at every study visit. FIGS. 18A and 18B show the change in value of the count of the target warts over time per treatment. […] Wart clearance was derived from the count of all warts present at baseline. In FIG. 19, the proportion of baseline lesions cleared is shown. […] Wart size. Wart size was measured during every visit. The change in mean of the long and short diameter, height and volume measured is presented in FIG. 21 along with the p-values.

TLR9 = assay: TLR9-mediated interferon responses in PBMC cultures (IFN-α ELISA); assay type: cell-based, human
Experimental: CpG motifs are present in a variety of DNA viruses and CpG signaling is relevant to host defense against viral infections. Briefly, PBMC primary cultures were prepared from 2 donors. […] E. coli ssDNA (5 μg/mL) or PBS (unstimulated). The readouts for IFN-α in cell supernatant were measured by ELISA.

TC-1 tumor = assay: Tumor outgrowth in TC-1 mice in presence or absence of anti-neutrophil antibody aLy6G; assay type: in vivo
Experimental: 10, 12, and 14. Tumor growth was measured at days 11, 13, 15, 17, 20, and 22.

[2] = 5 or 25 μg/mL peptide, 30 min pre-treatment, 24 hrs
[3] = right-shift of imiquimod concentration response curves
[4] = 6.25 or 25 μg/mL omiganan 30min pre-incubation, 24hr

In the case of CC[C@H](C)[C@H](N)C(=O)N[C@@H](CC(C)C)C(=O)N[C@@H](CCCNC(=N)N)C(=O)N[C@@H](Cc1c[nH]c2ccccc12)C(=O)N1CCC[C@H]1C(=O)N[C@@H](Cc1c[nH]c2ccccc12)C(=O)N[C@@H](Cc1c[nH]c2ccccc12)C(=O)N1CCC[C@H]1C(=O)N[C@@H](Cc1c[nH]c2ccccc12)C(=O)N[C@@H](CCCNC(=N)N)C(=O)N[C@@H](CCCNC(=N)N)C(=O)N[C@@H](CCCCN)C(N)=O [omiganan, I L R W P W W P W R R K] (H-ILRWPWWPWRRK-NH2), the IC50 (HPVS PsV) is reported as 23.5 to 29.1 µM, the “IL-6 responses to imiquimod (TLR7)” value (TLR7; [2]) is reported as “inhibited” and the “TNFα responses to imiquimod (TLR7)” value (TLR7; [2]) is reported as “inhibited”. For the same compound, the “interferon responses in the presence of imiquimod” value (TLR7; 5 or 25 μg/mL peptide, 30 min pre-treatment, 24 hrs, PBMC of 4 donors) was “induced strong interferon responses”, the “IL-1(3 responses to imiquimod (TLR7))” value (TLR7; [3]) was “inhibited” and the “IL-8 responses to imiquimod (TLR7)” value (TLR7; [3]) was “inhibited”. For the same compound, the “proportion of all lesions cleared (printed: mean of baseline warts cleared)” value ([1]; EOS, p-value=0.2891 vs vehicle) was 23.82%, the “mean of baseline warts cleared” value ([1]; EOS, p-value=0.3918 vs vehicle) was 29.3% and the “mean of all warts cleared” value ([1]; EOT, p-value=0.1879 vs vehicle) was 11.4%. For the same compound, the “mean of baseline warts cleared” value ([1]; EOT, p-value=0.2500 vs vehicle) was 15.5%, the “mean volume of the target warts compared to vehicle” value ([1]; at EOT visit, p-value=0.0367) was “significantly lower” and the “volume of the warts compared to vehicle” value ([1]; entire study period (pre-dose till EOS), p=0.0655) was “trend to reduction”. The adverse events ([1]; human, in vivo) was “few adverse events”, the “safety of administration to patients with external anogenital warts” value ([1]; human, in vivo) was “safe” and the “height of the warts compared to vehicle” value ([1]; p=0.0543) was “clear trend in decrease”. For the same compound, the wart count ([1]; summary of study) was “trend in reduction”, the “photography assessment of anogenital warts” value ([1]; two subjects treated with omiganan) was “visible wart size reduction or even clearance” and the “CpG-A IFN-α responses” value (TLR9; [4]) was “strongly enhanced”. For the same compound, the “CpG-B IFN-α responses” value (TLR9; [4]) was “did so strongly”, the “CpG-C IFN-α responses” value (TLR9; [4]) was “concentration-dependently enhanced” and the “ssDNA-driven IFN-α responses” value (TLR9; omiganan pre-incubation, E. coli ssDNA 5 μg/mL) was “initial inhibition of cytokine release at low omiganan concentrations, and an enhancement of cytokine release at higher omiganan concentrations”. For the same compound, the “tumor outgrowth compared to PBS-treated mice” value (TC-1 tumor; intratumoral on days 9, 11, 14, 16, 18, without aLy6G) was “reduction in tumor outgrowth” and the “reduction in tumor outgrowth” value (TC-1 tumor; omiganan treated group also treated with aLy6G) was “not observed”.
